According to EP0365089A2, “2-Aryl-5(3-methoxy-5-(hydroxypropylsulfonyl)-4-propoxyphenyl) tetrahydrothiophen and analogs” (MERCK & CO. INC., priority 1988, dated 1990):

How the values were obtained:
[1] = biological target: T1, PAF binding to its specific receptor binding site on rabbit platelet plasma membranes (Oryctolagus cuniculus, UniProt G1TEI7); experiment: Inhibition of 3H-PAF binding to platelet plasma membrane (isotopic labeling and filtration); settings: for inhibition at 30000 µM: dose 30 mM; for inhibition at 30 µM: dose .03 mM
T1 construct: from tissue; host or cells: rabbit platelet plasma membranes
Protocol: In vitro, they inhibit PAF-induced functions in both the cellular and tissue levels by disturbing the PAF binding to its specific receptor site. The ability of a compound of formula (I) to inhibit the PAF binding to its specific receptor binding site on rabbit platelet plasma membranes was measured by an assay developed by us.
The inhibition of H^3-PAF binding to human or rabbit platelet plasma membrane by a PAF-antagonist of Formula (I) was determined by a method employing isotopic labeling and filtration techniques. Generally, a series of Tris-buffered solutions of the selected antagonist at predetermined concentrations were prepared. Each of these solutions contains 1 pmole of ^3H-PAF, a known amount of the test antagonist, and a sufficient amount of the pH 7.0 Tris-buffer solution (10mM Tris, 0.25% bovine serum albumin, and 10 mM MgC12 per ml water) to make the final volume of 1 ml. After adding into a set of test tubes each with 100 αg of the platelet plasma […] suspension and one of the Tris-buffer solutions described above, the resulting mixture in each test tube was incubated at 0 C for about one hour or until the reaction was complete. Two control samples, one of which (Ci) contains all the ingredients described above except the antagonist and the other (C2) contains C1 plus a 1000-fold excess of unlabeled PAF, were also prepared and incubated simultaneously with the test samples. After the incubation was completed, the contents of each test tube were filtered under vacuo through a Whatman GF/C fiberglass filter and the residue washed rapidly several times with a total of 20 ml cold (0°-5°C) Tris-buffer solution. Each washed residue was then suspended in 10 ml scintillation solution (Aquasol 2, New England Nuclear, Connecticut) and the radioactivity was counted in a Packard Tri-Carb 460CD Liquid Scintillation System. Defining the counts from a test sample as "Total binding with antagonist"; the counts from the control sample C1, as "Total binding C1"; and the counts from the control sample C2 as "non-specific binding C2", the percent inhibition of each test antagonist can be determined by the following equation: [formula] Specific binding =(Total binding C1)-(non-specific binding C2)

PAF = experiment: PAF-antagonist activity, test not specified; settings: ranking in words, no test named
[2] = test system: PAF-induced symptoms including decreased arterial blood flow, increased vascular permeability and increased degranulation in rats; experiment: Oral activity of PAF-antagonists in inhibiting PAF-induced symptoms in rats; format: in vivo; settings: oral dose 1 mg/kg, male rats weighing about 190-220g
Protocol: • 1.) Fast rats overnight. • 2.) Weigh the rats the morning after fasting, • 3.) Suspend a test compound in 0.5% methylcellulose with 12 ounce hand homogenizer or a sonicator if necessary to yield a fine suspension. […] After the beginning of the PAF infusion as well as just before the PAF infusion, measure the following three parameters for each blood sample: • a) the arterial blood flow rate: determined by measuring the time to fill a pre-calibrated 14 µl capillary tube; • b) the vascular permeability: measured by calculating the increased hematocrit which results from loss of plasma from the circulation to extra-vascular spaces. • c) the circulatory degranulation: determined by assaying the increased plasma level of N-acetylglucosaminidase, a marker lysosomal enzyme. • 7.) Determine the percent change in each parameter of a blood sample at each post-PAF interval including the 30 minute interval, relative to the pre-PAF blood values. • 8.) Calculate the percent inhibition by the formula: % inhibition = [formula]

T1 sequence (G1TEI7 1-342): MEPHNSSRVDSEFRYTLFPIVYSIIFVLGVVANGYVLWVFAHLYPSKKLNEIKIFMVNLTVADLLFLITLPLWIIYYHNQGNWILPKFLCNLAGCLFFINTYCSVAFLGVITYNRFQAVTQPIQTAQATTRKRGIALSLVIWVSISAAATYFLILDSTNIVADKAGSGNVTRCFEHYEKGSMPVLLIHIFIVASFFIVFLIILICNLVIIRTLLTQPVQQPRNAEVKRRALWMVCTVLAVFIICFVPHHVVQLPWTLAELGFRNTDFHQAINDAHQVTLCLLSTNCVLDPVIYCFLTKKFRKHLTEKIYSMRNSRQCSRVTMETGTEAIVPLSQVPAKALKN

| SMILES | inhibition at 30000 µM [1] [%] | inhibition at 30 µM [1] [%] | PAF-antagonist activity (PAF) | also measured |
| --- | --- | --- | --- | --- |
| CCOc1c(OC)cc([C@H]2CC[C@H](c3cc(OC)c(OC)c(OC)c3)S2)cc1C(=O)Nc1cccc(Cl)c1 (relative stereo) [(3-chlorophenyl-aminocarbonyl)phenyl, trans-2-(3,4,5-trimethoxyphenyl)-5-(3-methoxy-4-ethoxy-5-(3-chlorophenylaminocarbonyl)-phenyl)tetrahydrothiophene] | 6 | – | most active | – |
| COc1cc(C2CCC(c3cc(OC)c(OC)c(OC)c3)S2)cnc1OC (centres unmarked) [5,6-di-methoxy-3-pyridyl] | – | – | – | inhibition at 1000 µM ([1]; dose 1 mM): 80%; inhibition at 5000 µM ([1]; dose 5 mM): 96% |
| COc1cc(C2CCC(c3cc(OC)c(OC)c(OC)c3)S2)cc(OC)c1OC (centres unmarked) [same as Ar] | – | 69 | – | – |

Now from value to molecule, other results behind:

| inhibition at 30000 µM [1] [%] | inhibition at 30 µM [1] [%] | SMILES | PAF-antagonist activity (PAF) | also measured |
| --- | --- | --- | --- | --- |
| 27 | – | CCCOc1c(C#N)cc([C@H]2CC[C@H](c3cc(OC)c(OC)c(OC)c3)S2)cc1OC (relative stereo) [3-cyano-4-propoxy-5-methoxyphenyl, trans-2-(3,4,5-trimethoxyphenyl)-5-(5-cyano-3-methoxy-4-propoxyphenyl)-tetrahydrothiophene] | – | – |
| – | 89 | CCCOc1c(OC)cc([C@H]2CC[C@H](c3cc(OC)c(OC)c(OC)c3)S2)cc1S(=O)(=O)CC(C)O (relative stereo) [Trans-2-(3,4,5-trimethoxyphenyl)-5-(3-methoxy-5-(2-hydroxypropylsulfonyl)-4-propoxyphenyl)-tetrahydrothiophene] | most active | %inhibition A = increased vascular permeability [2]: 60%; %inhibition B = increased degranulation [2]: 62%; inhibition at 3 µM ([1]; dose .003 mM): 57% |
